Source: US8415307B1, “Antibiotic compositions for the treatment of gram negative infections” (priority 2010, dated 2013)
*1 amine or outer side, *2 acyl side, *3 side chain or, on linkers, in order; H or OH if unused. Where a SMILES comes first, the peptide text is derived from it. Bridges are numbered along the chain shown (N, C = ends). [ ]: non-standard residue; d: D form. The star is where a group is joined. ξ: configuration not given here. Thr(3ξ) = CC(O)[C@H](N)C(=O)O; NH(2-ClPh) = Clc1ccccc1N*; X1 = CC[C@H](C)CCCCC(=O)*; dDab = NCC[C@@H](N)C(=O)O; Dab = NCC[C@H](N)C(=O)O; CO = O=C([*:1])[*:2]; ξDab = NCCC(N)C(=O)O

Legend:
[1] = system: A. baumannii 1570; assay: MIC against the primary screening panel (broth microdilution); type: cell-based; set-up: key: A: a MIC value measurement that is the same as that observed for polymyxin B; a MIC value measured that is lower than the comparable value observed for polymxin B; a MIC value measured that is higher than the comparable value observed for polymyxin B; conditions: class relative to polymyxin B
Procedure: (§1) Antibacterial potency can be assessed by broth microdilution according to CLSI guidelines, plates can be incubated at 37° C., and aeration (rotation at 200 rpm) can be employed. In some assays, surfactant (Survanta, Abbott Laboratories) can be added to give a final concentration of 1, 10 and 40% in caMHB. Native polymyxin A, polymyxin B and the comparator compound of Formula II (polymyxin B decapeptide with an o-chlorophenyl urea tail) were included for comparison.

[2] = system: K. pneumoniae 1800 (PMX-resistant); assay: as above; type: cell-based; set-up: key: A: a MIC value measurement that is the same as that observed for polymyxin B; a MIC value measured that is lower than the comparable value observed for polymxin B; a MIC value measured that is higher than the comparable value observed for polymyxin B; conditions: class relative to polymyxin B
Procedure: as §1

[3] = system: K. pneumoniae 933; assay: as above; type: cell-based; set-up: key: A: a MIC value measurement that is the same as that observed for polymyxin B; a MIC value measured that is lower than the comparable value observed for polymxin B; a MIC value measured that is higher than the comparable value observed for polymyxin B; conditions: class relative to polymyxin B
Procedure: as §1

[4] = system: P. aeruginosa 44; assay: as above; type: cell-based; set-up: key: A: a MIC value measurement that is the same as that observed for polymyxin B; a MIC value measured that is lower than the comparable value observed for polymxin B; a MIC value measured that is higher than the comparable value observed for polymyxin B; conditions: class relative to polymyxin B
Procedure: as §1

[5] = system: A. baumannii; assay: MIC50-90 against small panels (n = 35); type: cell-based; set-up: key: A: a MIC value measurement that is the same as that observed for polymyxin B; a MIC value measured that is lower than the comparable value observed for polymxin B; a MIC value measured that is higher than the comparable value observed for polymyxin B; conditions: small panel n = 35; class relative to polymyxin B
Excerpt: (§2) MIC's refer to the concentration of each antimicrobial agent required to inhibit the growth of a bacterial isolate, as well as the corresponding concentrations required to inhibit 50% and 90% of each group of microorganisms tested [MIC50 and MIC90, respectively, consistent with definitions in the “Instructions to Authors” for Antimicrobial Agents and Chemotherapy (Antimicrobial Agents and Chemotherapy, January 2010, p. 1-23, Vol. 54, No. 1, incorporated herein by reference)]. When only up to nine isolates of a species are tested, MIC's are reported as the MIC range of each antimicrobial agent tested. MIC values provided as numerical ranges for testing of a single bacterial strain indicate the range of MIC values obtained in repeated tests of the indicated bacteria strain.
as §1

[6] = system: E. coli; assay: MIC50-90 against small panels (n = 35); type: cell-based; set-up: key: A: a MIC value measurement that is the same as that observed for polymyxin B; a MIC value measured that is lower than the comparable value observed for polymxin B; a MIC value measured that is higher than the comparable value observed for polymyxin B; conditions: small panel n = 35; class relative to polymyxin B
Excerpt: as §2, §1

[7] = system: K. pneumoniae; assay: MIC50-90 against small panels (n = 35); type: cell-based; set-up: key: A: a MIC value measurement that is the same as that observed for polymyxin B; a MIC value measured that is lower than the comparable value observed for polymxin B; a MIC value measured that is higher than the comparable value observed for polymyxin B; conditions: small panel n = 35; class relative to polymyxin B
Excerpt: as §2, §1

[8] = system: P. aeruginosa; assay: MIC50-90 against small panels (n = 35); type: cell-based; set-up: key: A: a MIC value measurement that is the same as that observed for polymyxin B; a MIC value measured that is lower than the comparable value observed for polymxin B; a MIC value measured that is higher than the comparable value observed for polymyxin B; conditions: small panel n = 35; class relative to polymyxin B
Excerpt: as §2, §1

[9] = system: P. aeruginosa #44; assay: MICs for P. aeruginosa #44 in the presence of surfactant; type: cell-based; set-up: key: A: a MIC value measurement that is the same as that observed for polymyxin B; a MIC value measured that is lower than the comparable value observed for polymxin B; a MIC value measured that is higher than the comparable value observed for polymyxin B; conditions: class relative to polymyxin B; for MIC P. aeruginosa #44, 10% surfactant: 10% surfactant (Survanta) in caMHB; for MIC P. aeruginosa #44, 40% surfactant: 40% surfactant (Survanta) in caMHB
Procedure: as §1

[10] = system: P. aeru; assay: MIC50 and MIC90, panel of Gram negative bacterial strains (CLSI broth microdilution); type: cell-based, P. Aeruginosa; set-up: key to P. aeru MIC50 / P. aeru MIC90: A: a measured MIC value equal to that of polymyxin B; a measured MIC value less than the corresponding MIC value measured for polymyxin B; a measured MIC value greater than the corresponding MIC value measured for polymyxin B; conditions: for P. aeru MIC50 / P. aeru MIC90: class relative to polymyxin B, some strains multi-drug resistant
Procedure: (§3) The potency and spectrum of Compound 5 was studied using a panel of Gram negative bacterial strains.
(§4) MIC testing can be performed according to Clinical and Laboratory Standards Institute (CLSI) M7-A7 (2006) broth microdilution methods. Unless otherwise indicated, MIC values are provided in units of micrograms per milliliter.
(§5) One day prior to testing, individual colonies were isolated by streaking onto rich, non-selective Tryptic Soy agar with 5% lysed sheeps blood (TSAB) with incubation at 35-37° C. for 18-24 hours.
(§6) Cultures were prepared by touching 3-5 colonies into 3 mL of cation-adjusted Mueller Hinton Broth (caMHB) in a 14-mL tube (caMHB was prepared and sterilized according to manufacturer's specifications).
(§7) OD600 of growing cultures was measured and adjusted to approximately 10^5 colony forming units per mL (CFU/mL) in caMHB for MIC inoculation (approximately OD600 0.001).
(§8) Diluted cultures were used to inoculate 50 μL per well in broth microdilution assays (final volume 100 μl per well; compounds were prepared in two-fold dilutions).
(§9) Plates were incubated 16-20 hours at 37° C., with shaking at 200 rpm.
(§10) OD600 was determined for all wells. Growth was defined as OD600>0.1. MICs were defined as the lowest concentration producing no visible turbidity (OD600<0.1).

[11] = system: E. coli; assay: as above; type: cell-based; set-up: key to E. coli MIC50 / E. coli MIC90: A: a measured MIC value equal to that of polymyxin B; a measured MIC value less than the corresponding MIC value measured for polymyxin B; a measured MIC value greater than the corresponding MIC value measured for polymyxin B; conditions: for E. coli MIC50 / E. coli MIC90: class relative to polymyxin B, some strains multi-drug resistant
Procedure: as §3, §4, §5, §6, §7, §8, §9, §10

[12] = system: K. pneu; assay: as above; type: cell-based, K. pneumonia; set-up: key to K. pneu MIC50 / K. pneu MIC90: A: a measured MIC value equal to that of polymyxin B; a measured MIC value less than the corresponding MIC value measured for polymyxin B; a measured MIC value greater than the corresponding MIC value measured for polymyxin B; conditions: for K. pneu MIC50 / K. pneu MIC90: class relative to polymyxin B, some strains multi-drug resistant
Procedure: as §3, §4, §5, §6, §7, §8, §9, §10

[13] = system: A. baum; assay: as above; type: cell-based, A. baumanni; set-up: key to A. baum MIC50 / A. baum MIC90: A: a measured MIC value equal to that of polymyxin B; a measured MIC value less than the corresponding MIC value measured for polymyxin B; a measured MIC value greater than the corresponding MIC value measured for polymyxin B; conditions: for A. baum MIC50 / A. baum MIC90: class relative to polymyxin B, some strains multi-drug resistant
Procedure: as §3, §4, §5, §6, §7, §8, §9, §10

[14] = system: P. aeruginosa 44; assay: Neutropenic mouse lung infection model; type: in vivo; conditions: for Lungs cleared within one log10 of limit of detection: mouse lung model, 8 through 20 mg/kg dose levels
Procedure: Compound of Formula (Ia) was tested in a murine thigh model. For the thigh model, female CD-1 mice were rendered neutropenic by IP injection on days −4 and −1 with 150 and 100 mg/kg cyclophosphamide, respectively. On day 0 mice were infected with 1×10^7 colony-forming units (cfu) of A. baumannii 1570 in one thigh muscle, and then administered compound SC in a dose ranging from 2 to 12 mg/kg at 1 and 6 hours post-infection.
The mouse lung model was run in the same manner as the thigh infection model, except that mice were infected IN with 1×10^7 cfu of P. aeruginosa 44 on day 0. Doses administered in the lung study ranged from 8 to 20 mg/kg. The ED−3log10 was based on cfu determination from the lung tissue 24 hours post-infection.

[15] = Acute toxicity testing in rats; type: in vivo, Sprague-Dawley rat
Procedure: One female Sprague-Dawley rat was administered a 1 mg/kg dose of the test Compound 5. Clinical observations were taken immediately following the administration of compound and at 0.5, 1, 2 and 4 hours post-dose.

[16] = 1 mg/kg i.v., female Sprague-Dawley rat

Row | Compound | MIC A. baumannii 1570 [1] | MIC K. pneumoniae 1800 (PMX-resistant) [2] | MIC K. pneumoniae 933 [3] | MIC P. aeruginosa 44 [4] | A. baumannii MIC50 [5] | A. baumannii MIC90 [5] | E. coli MIC50 [6] | E. coli MIC90 [6] | K. pneumoniae MIC50 [7] | K. pneumoniae MIC90 [7] | P. aeruginosa MIC50 [8] | P. aeruginosa MIC90 [8] | MIC P. aeruginosa #44, 0% surfactant [9] | MIC P. aeruginosa #44, 10% surfactant [9] | MIC P. aeruginosa #44, 40% surfactant [9] | E. coli MIC50 [11] | E. coli MIC90 [11] | K. pneu MIC50 [12] | K. pneu MIC90 [12] | A. baum MIC50 [13] | other results
1 | CC(C)C[C@H]1NC(=O)[C@H](CCN)NC(=O)[C@@H](NC(=O)[C@@H](CCN)NC(=O)[C@@H](NC(=O)[C@H](CCN)NC(=O)[C@H]2C[C@@H]2c2ccccc2)C(C)O)CCNC(=O)[C@H](C(C)O)NC(=O)[C@H](CCN)NC(=O)[C@H](CCN)NC(=O)[C@H](C(C)O)NC1=O (single isomer, unassigned) [Compound 5] | C | C | A | C | C | C | C | A | C | C | A | C | C | B | B | C | A | C | C | C | activity against P. Aeruginosa isolates [10]: active; P. aeru MIC50 [10]: A; P. aeru MIC90 [10]: C; activity against E. coli isolates [11]: active; activity against K. pneumonia isolates [12]: active; activity against A. baumanni isolates [13]: active; A. baum MIC90 [13]: C; Lungs cleared within one log10 of limit of detection [14]: Lungs cleared within one log10 of limit of detection; ED−3log10 ([14]; neutropenic mouse lung, P. aeruginosa 44, SC, BID×1d, cfu 24 hours post-infection, experiment with Formula (Ia)): 6.35 mg/kg; Acute (anaphylactoid) observations ([15]; 1 mg/kg i.v., 1 female Sprague-Dawley rat): anaphylactoid response was observed; Clinical signs by 0.5 hours [15, 16]: these signs diminished, but the rat remained hypoactive; Clinical signs by 1 hour [15, 16]: no clinical signs and appeared normal; Clinical signs immediately following the dose [15, 16]: flushed ears, abnormal gait, hypoactivity and squinty eyes
2 | CC(C)C[C@@H]1NC(=O)[C@@H](Cc2ccccc2)NC(=O)[C@H](CCN)NC(=O)C(NC(=O)[C@H](CCN)NC(=O)[C@@H](NC(=O)[C@H](CCN)NC(=O)Nc2ccccc2Cl)C(C)O)CCNC(=O)[C@H](C(C)O)NC(=O)[C@H](CCN)NC(=O)C(CCN)NC1=O (stereo partly shown) [Formula (II) comparator] ({NH(2-ClPh)-CO}-[Dab][Thr(3ξ)][Dab][ξDab][Dab][dF]L[ξDab][Dab][Thr(3ξ)]; lactam 4-C) | C | C | C | C | C | C | C | C | C | C | B | A | C | B | A | C | C | C | C | C | P. aeru MIC50 ([10]; listed as 2): B and A; P. aeru MIC90 ([10]; listed as 2): A and C; A. baum MIC90 [13]: C; Lungs cleared within one log10 of limit of detection [14]: not seen
3 | CC[C@H](C)CCCCC(=O)N[C@@H](CCN)C(=O)N[C@H](C(=O)N[C@H](CCN)C(=O)N[C@H]1CCNC(=O)[C@H]([C@@H](C)O)NC(=O)[C@H](CCN)NC(=O)[C@H](CCN)NC(=O)[C@H]([C@@H](C)O)NC(=O)[C@@H](CC(C)C)NC(=O)[C@H](CCN)NC1=O)[C@@H](C)O [Native Polymyxin A, Polymyxin A] (X1-[Dab]T[dDab][Dab][Dab][dL]T[Dab][Dab]T; lactam 4-C) | C | C | B | A | A | A | B | A | C | C | A | C | C | B | B | B | A | C | C | A | P. aeru MIC50 [10]: A; P. aeru MIC90 [10]: C; A. baum MIC90 [13]: A; Lungs cleared within one log10 of limit of detection [14]: not observed; Clinical signs ([15]; IV dose of 1 mg/kg, similar experiment): no clinical signs were observed
